Tests used:
erythrocytes (RBCs) = test: Entry into erythrocytes, oil-stop method; format: in vitro ADME; conditions: calculated in the first 30 minutes, 37° C., 10% hematocrit
Description: The entry of GSH and GSH-C4 into erythrocytes (RBCs) at 37° C. in microcentrifugal test-tubes was measured using the oil-stop method. […] A Manual of Biochemical Methods, 3rd edn. Grune & Stratton, New York).

Sendai virus = Sendai virus replication in MDCK cells, hemagglutinating activity in supernatant; format: cell-based; conditions: for EC50 / inhibition at 5000 µM: Respirovirus muris; for EC50: 48 h, MDCK cells, read-out: 50% of inhibition of viral reproduction (EC50); for inhibition at 5000 µM: MDCK, 5 mM
Description: To measure the behavior of GSH-C4 derivatives in infected cells, Madin Darby canine kidney cells (MDCK) were grown in RPMI 1640 to which 5% of heat-decomplemented bovine fetal serum (Flow Laboratories, Italy) was added.
(§1) The Senday virus (SV) belonging to the Paramyxovirus family is a virus with non-segmented single stranded RNA of negative polarity. This virus was reproduced by inoculation in the allantoic liquid of embryonated chicken eggs. The monolayers of MDCK cells were infected with SV [3 hemagglutinating units (HAU)×10^5 cells]. After incubation for 1 hour at 37° C. (adsorption period), the unadsorbed viruses were removed, the monolayers were washed and then incubated in a complete medium containing 2% of bovine fetal serum. The production of viruses by infected cells was determined in the cellular supernatants at different intervals of time from infection (p.i.), measuring the hemagglutinating activity towards type 0 Rh+ human erythrocytes (HAU), according to standard procedures. […] Monkey kidney cells (VERO) were grown in RPMI, to which 5% of serum was added. The human herpes simplex virus type 1 (HSV-1), clinically isolated (TV1), was grown and titered in the Vero cells as described in Palamara, A. T., Perno, C. F., Ciriolo, M. R., Dini, L., Balestra, E., D'Agostini, C. et al. (1995). […] Antiviral Research 27, 237-253.
MDCK cells were infected for 1 hour with 3 hemagglutinating units (HAU)×10^5 cells. The cells were washed and then cultivated in the presence of different concentrations of GSH-C4 (range 0-7.5 mM) for 2 days. Production of the virus was assayed at 24 hours (panel A) and 48 hours (panel B) measuring the hemagglutinating activity on type 0 Rh+ human erythrocytes.

HSV-1 = HSV-1 replication in Vero cells, plaque assay; format: cell-based, human herpes simplex virus type 1
Description: as §1
(§2) To obtain the viral infection, monolayers of Vero cells were infected with HSV-1 at a MOI (multiplicity of infection) of 0.03 PFU/cell. After incubation for 1 hour at 37° C. (adsorption period) the unadsorbed viruses were removed, the monolayers were washed and then incubated with culture medium containing 2% bovine fetal serum. GSH-C4 was added in identical doses to the ones indicated above immediately after the adsorption period and was maintained in the culture medium until completion of the experiments. Supernatants from infected cells were collected at different times after contact with the virus and tested for the ability to form plaques in Vero cells, using a standard titration method. Similar experiments were also conducted on HSV-1 TK-D305.
Vero cells were infected for 1 hour with HSV-1 at a MOI of 0.03 PFU/cell. After repeated washings, GSH-C4 was added at different concentrations (range 0-10 mM) to the cell cultures. Replication of the viruses was tested in the Vero cells 48 h after infection using the plaque technique.

[1] = test system: uninfected Madin Darby canine kidney cells (MDKC); test: Toxicity on confluent monolayers of uninfected MDCK cells (morphology, Trypan blue vitality, cell count); format: cell-based; conditions: for toxic effect or change in cell morphology: uninfected MDCK monolayers, concentrations used in the experiments
Description: The toxicity was measured on the basis of microscopic examinations of cellular morphology, of measurement of cellular vitality after staining with Trypan blue and of the cell count. All compounds were diluted in RPMI, the final pH of the solution was approximately 7-7.3.

[2] = molecular target: T1, glutathione peroxidase (E.C.1.11.1.9.) (Homo sapiens, UniProt P07203); test: Glutathione peroxidase activity in hemolyzed human blood with GSH or GSH-C4 as substrate; format: biochemical; conditions: 2 mM substrate
T1 construct: measured in hemolyzed human blood; from tissue; host or cells: hemolyzed human blood
T1 sequence (P07203 1-203): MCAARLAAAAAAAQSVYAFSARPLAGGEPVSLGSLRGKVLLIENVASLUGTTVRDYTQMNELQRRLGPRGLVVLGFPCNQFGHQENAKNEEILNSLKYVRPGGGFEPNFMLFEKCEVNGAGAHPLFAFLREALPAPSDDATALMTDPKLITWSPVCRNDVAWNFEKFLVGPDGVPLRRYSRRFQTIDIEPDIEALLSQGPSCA
Description: (§3) Enzymatic determinations of the activity of glutathione peroxidase (E.C.1.11.1.9.) and glutathione S-transferase (E.C.2.5.1.18.) in hemolyzed human blood in the presence of GSH and of its derivative GSH-C4 were carried out according to the methods of Beutler (Beutler, E., 1984, Red Cell Metabolism. A Manual of Biochemical Methods, 3rd edn. Grune & Stratton, New York). GSH and GSH-C4 were then oxidized by incubation at ambient temperature in the presence of 35% (v/v) H2O2 to respectively obtain GSSG and C4-GSSG-C4.
(§4) The enzymatic activities of glutathione peroxydase and glutathione S-transferase were measured in hemolyzed human blood in the presence of GSH-C4 or GSH 2 mM as substrates. […] Moreover, GSH and GSH-C4 were chemically oxidized in the corresponding disulphide forms (GSSG and C4-GSSG-C4).

[3] = test system: glutathione S-transferase (E.C.2.5.1.18.); test: Glutathione S-transferase activity in hemolyzed human blood with GSH or GSH-C4 as substrate; format: biochemical; conditions: 2 mM substrate
Description: as §3, §4

HSV-1 TK− = test: HSV-1 TK- (Δ305) replication in Vero cells, plaque forming units; format: cell-based, human herpes simplex virus type 1
Description: as §2
Vero cells were infected for 1 h at 37° C. with the strain Δ305 and then kept in culture in the presence of different concentrations of GSH-C4. The production of viruses was measured 24, 48 and 72 h after infection by assay of the plaque forming units.

uninfected Vero cells = test: Toxic effects in uninfected Vero cells; format: cell-based, Monkey

## N[C@@H](CCC(=O)N[C@@H](CS)C(=O)NCC(=O)O)C(=O)O [GSH, γ-glutamylcysteinylglycine, reference compound]
Erythrocytes (RBCs)
  entry speed into erythrocytes: 2.33 nmol/min/ml RBCs
Sendai virus
  EC50: 7.6 mM
HSV-1; 10 mM
  complete inhibition of the virus: does not induce complete inhibition of the virus
  reduction in virus replication: around 2.5 log

## CCCCCCCC(=O)NC(CCC(=O)NC(CS)C(=O)NCC(=O)O)C(=O)O (stereo not drawn) [GSH-C8]
[1]
  toxic effect or change in cell morphology: marked toxic effects

## CCCC(=O)N[C@@H](CCC(=O)N[C@@H](CS)C(=O)NCC(=O)O)C(=O)O [GSH-C4, n-butanoyl γ-glutamylcysteinylglycine]
[1]; 7.5 mM, MDCK monolayers of the Sendai experiment
  toxicity for the cells, microscopic examination of the monolayers: without being toxic for the cells
[1]
  toxic effect or change in cell morphology: do not induce any toxic effect or change in cell morphology
[2]
  glutathione peroxydase activity compared to that in the presence of GSH: 1.8%
[3]
  glutathione S-transferase activity compared to that in the presence of GSH: 3.5%
Erythrocytes (RBCs)
  entry speed into erythrocytes: 4.33 nmol/min/ml RBCs
Sendai virus; 7.5 mM
  virus in the supernatant of treated cells: no viruses were found
Sendai virus; 24 h p.i.
  inhibition at 5000 µM: 88%
Sendai virus; 48 h p.i.
  inhibition at 5000 µM: 93%
Sendai virus
  EC50: 3.6 mM
HSV-1; 10 mM, 48 h after infection
  virus particles in the cellular supernatant: no virus particles were detected
HSV-1; 72 h after infection
  inhibition of virus replication 72 h after infection: same inhibition
HSV-1; HSV-1 infected Vero cells
  protection from cytopathic effects induced by the virus: protects the Vero cells from the cytopathic effects induced by the virus
HSV-1; Human alphaherpesvirus 1, Vero, 48 h, read-out: inhibition of viral replication compared to the control
  inhibition at 7500 µM: 60%
HSV-1 TK−
  activity against the strain TK− compared with the wild type strain: less active
HSV-1 TK−; 5 mM, 24 h
  HSV-1 TK− titer: 2.59 × 10^5 pfu/ml
HSV-1 TK−; 5 mM, 48 h
  HSV-1 TK− titer: 2.42 × 10^6 pfu/ml
HSV-1 TK−; 5 mM, 72 h
  HSV-1 TK− titer: 2.13 × 10^6 pfu/ml
HSV-1 TK−; 7.5 mM, 24 h
  HSV-1 TK− titer: 1.59 × 10^5 pfu/ml
HSV-1 TK−; 7.5 mM, 48 h
  HSV-1 TK− titer: 2.56 × 10^5 pfu/ml
HSV-1 TK−; 7.5 mM, 72 h
  HSV-1 TK− titer: 4.33 × 10^5 pfu/ml
HSV-1 TK−; 7.5 mM, 72 h after infection
  inhibition of virus titer: approximately 1 log
HSV-1 TK−; 10 mM, 24 h
  HSV-1 TK− titer: 1.53 × 10^5 pfu/ml
HSV-1 TK−; 10 mM, 48 h
  HSV-1 TK− titer: 2.6 × 10^5 pfu/ml
HSV-1 TK−; 10 mM, 72 h
  HSV-1 TK− titer: 3.44 × 10^5 pfu/ml
Uninfected Vero cells
  toxic effects in uninfected Vero cells: does not induce any toxic effects
